Columns and labels:
Assay in all cases: Growth inhibition GI50 in vitro (CCK8/MTT, 72 h)
Assay type in all cases: cell-based, human
H1975 (EGFR L858R/T790M) = conditions: Homo sapiens, NCI-H1975; EGFR mutant cell line; range of GI50; read-out: GI50 H1975
Protocol: (§1) PC-9ER is an acquired Erlotinib resistance cell line of PC-9 cells developed by the investor. […] The four cell lines above were cultured with 1×RPMI1640 complete medium (supplement with 10% FBS). Human colon cancer cell line SW48 (EGFR G719S positive, ATCC). was cultured with L15 complete medium (10% FB S).
(§2) The suspension cells were collected by centrifugation. The supernatant was discard and the cell pellet was resuspended and counted. Different cell concentrations (5˜10×10^4 cells/mL) were prepared according to the growth cycle of each cell line and then seeded on a 96-well plate (Corning), 100 μL/well. The cells were incubated over night at 37° C., 5% CO2. The compounds were added to the cells on the second day with 2 wells in parallel. The final concentration of organic solvent shall not exceed 1%. The cells were continually incubated for 72 h, and then subjected to MTT assay.
(§3) The present compounds and the reference compounds were dissolved with DMSO (Sigma), respectively. […] The storage concentration of compounds was 10 mM and kept at −20° C. They were diluted by 2 times or 10 times with serial dilution before using.
(§4) Dojindo CCK8 reagent kit was used as MTT assay. […] FC meter was used as microplate reader.
(§5) Adherent cell culture medium was discard and immediately replaced with fresh prepared medium which contains 10% CCK8 reagent (100 μL/well). For the suspension cells, CCK8 was directly added to 10% of the final concentration. The cells were continually incubated for 1˜4 h. When the color of control wells turned to dark yellow, the absorption value was measured at OD450 nm. The cell growth rate was calculated according to the following formula: cell growth rate (%)=100*(T−T0)/(C−T0), T=optical density of drug treatment cell well—optical density of blank control well; T0=optical density of cell well before drug treatment—optical density of blank control well; C=optical density of cell well of solvent control group—optical density of blank control well. […] The experiment was independently repeated 1˜3 times, and subject to biological statistical analysis.

HCC827 (EGFR dE746-A750) = conditions: Homo sapiens, HCC827; EGFR mutant cell line; range of GI50; read-out: GI50 HCC827
Protocol: as §1, §2, §3, §4, §5

PC-9 (EGFR dE746-A750) = conditions: Homo sapiens; EGFR mutant cell line; range of GI50; read-out: GI50 PC-9
Protocol: as §1, §2, §3, §4, §5

[1] = tested on: PC-9ER (EGFR delE746-A750/T790M); conditions: Homo sapiens, PC-9/ER; EGFR mutant cell line; range of GI50; read-out: GI50 PC9ER
Protocol: as §1, §2, §3, §4, §5

N87 (HER2 Amp) = conditions: Homo sapiens; HER2 positive cell line; range of GI50; read-out: GI50 N87
AU565 (Her2 amp) = conditions: Homo sapiens, AU565; HER2 positive cell line; range of GI50; read-out: GI50 AU-565
SK-BR-3 (Her2 amp) = conditions: Homo sapiens, SK-BR-3; HER2 positive cell line; range of GI50; read-out: GI50 SK-BR-3
Protocol: Human lung adenocarcinoma cell line Calu-3 (ATCC) was cultured with 1×MEM complete medium (10% FBS, 1% double-antibiotics, 1% NEAA (Gibco), 2 mM glutamine and 1 mM of sodium pyruvate). Human breast cancer cell line SK-BR-3 was cultured with McCOY'S5A complete medium (10% FBS). Human colon cancer cell line SNU1040 (HER2 V777M positive) (ATCC) and human bronchoalveolar adenocarcinoma cell line NCI-H1781 (expressing HER2 exon 20 G776VC mutation) (ATCC) were cultured with 1×RPMI1640 complete medium (10% FBS), respectively.
as §2, §3, §4, §5

[2] = tested on: A431 (EGFR WT, amplification and high expression); conditions: Homo sapiens, A-431; EGFR wild type cell line; range of GI50; read-out: GI50 A431
From the text: (§6) EGFR wild type cell lines: human epidermal cancer cell line A431 (EGFR WT, amplification and high expression, from Shanghai Cell Bank of Chinese Academy of Sciences and ATCC), NSCLC cell lines NCI-H460 (EGFR WT, Kras G61H and PI3KCA E545K mutants, ATCC) and NCI-H1299 (EGFR WT, ATCC), melanoma cell line A375 (EGFR WT and BRAF V600E mutant, from Shanghai Cell Bank of Chinese Academy of Sciences, ATCC), human lung cancer cell line NCI-H292 (EGFR WT, from human lung mucoepidermoid carcinoma/lymphatic metastasis, purchased from Shanghai Cell Bank of Chinese Academy of Sciences) were cultured with 1×RPMI1640 complete medium which was supplement with 10% FBS. NSCLC cell line A549 (EGFR WT and Kras G12S mutant, from Shanghai Cell Bank of Chinese Academy of Sciences) was cultured with 1×Ham'S F12K complete medium which was supplement with 10% FBS, 1% double-antibiotics and 2 mM glutamine.
as §2, §3, §4, §5

A549 (EGFR WT) = conditions: Homo sapiens, A549; EGFR wild type cell line; range of GI50; read-out: GI50 A549
From the text: as §6, §2, §3, §4, §5

[3] = tested on: H1299 (EGFR wt, Nras Q61K); conditions: Homo sapiens, NCI-H1299; EGFR wild type cell line; range of GI50; read-out: GI50 H1299
From the text: as §6, §2, §3, §4, §5

[4] = tested on: H460 (EGFR wt, Kras G61H); conditions: Homo sapiens, NCI-H460; EGFR wild type cell line; range of GI50; read-out: GI50 H460
From the text: as §6, §2, §3, §4, §5

SMILES	GI50 (H1975 (EGFR L858R/T790M)) [nM]	GI50 (HCC827 (EGFR dE746-A750)) [nM]	GI50 (PC-9 (EGFR dE746-A750)) [nM]	GI50 [1] [nM]	GI50 (N87 (HER2 Amp)) [nM]	GI50 (AU565 (Her2 amp)) [nM]	GI50 (SK-BR-3 (Her2 amp)) [nM]	GI50 [2] [nM]	GI50 (A549 (EGFR WT)) [nM]	GI50 [3] [nM]	GI50 [4] [nM]
C=CC(=O)Nc1cc(Nc2nccc(-n3ccc4cc(OC)ccc43)n2)c(OC)cc1N(C)CCN(C)C [Compound 78, N-(5-(4-(5-methoxyl-1H-indol-1-yl)-pyrimidin-2-ylamino)-2-((2-dimethylamino-ethyl)-methyl-amino)-4-methoxyl-phenyl)-acrylamide]	< 10	10 to 100	10 to 100	10 to 100	< 10	10 to 100	10 to 100	100 to 1000	> 1000	> 1000	> 1000
C=CC(=O)Nc1cc(Nc2cc(-c3cn(CC)c4ccccc34)ncn2)c(OC)cc1N(C)CCN(C)C [Compound 181, N-{2-((2-dimethylamino-ethyl)-methylamino)-5-[6-(1-ethyl-1H-indol-3-yl)-pyrimidin-4-ylamino]-4-methoxyl-phenyl}-acrylamide]	10 to 100	< 10	< 10	< 10	10 to 100	10 to 100	10 to 100	100 to 1000	> 1000	> 1000	> 1000
C=CC(=O)Nc1cc(Nc2nccc(-n3ccc4ccccc43)n2)c(OC)cc1N(C)CCN(C)C [Compound 32]	10 to 100	10 to 100	10 to 100	< 10	10 to 100	10 to 100	100 to 1000	100 to 1000	> 1000	> 1000	> 1000
C=CC(=O)Nc1cc(Nc2nccc(-n3nnc4ccccc43)n2)c(OC)cc1N(C)CCN(C)C [Compound 107]	10 to 100	10 to 100	10 to 100	10 to 100	10 to 100	100 to 1000	10 to 100	> 1000	> 1000	> 1000	> 1000
C=CC(=O)Nc1cc(Nc2ncnc(Nc3ccc(F)c(Cl)c3)n2)c(OC)cc1N(C)CCN(C)C [Compound 109, N-(5-(4-(3-chloro-4-fluoro-phenylamino)-[1,3,5]triazin-2-ylamino)-2-((2-dimethylamino-ethyl)-methyl-amino)-4-methoxyl-phenyl)-acrylamide]	10 to 100	10 to 100	10 to 100	10 to 100	10 to 100	10 to 100	10 to 100	100 to 1000	> 1000	> 1000	> 1000
C=CC(=O)Nc1cc(Nc2cc(Nc3ccc(F)c(Cl)c3)ncn2)c(OC)cc1N1CCCN(C)CC1 [Compound 144, N-(5-(6-(3-chloro-4-fluoro-phenylamino)-pyrimidin-4-ylamino)-2-(4-methyl-[1,4]diazepin-1-yl)-4-methoxyl-phenyl)-acrylamide]	< 10	< 10	< 10	< 10	< 10	< 10	< 10	10 to 100	> 1000	> 1000	> 1000
C=CC(=O)Nc1cc(Nc2cc(Nc3ccc(F)c(Cl)c3)ncn2)c(OC)cc1N1CCC(N2CCOCC2)CC1 [Compound 143, N-(5-(6-(3-chloro-4-fluoro-phenylamino)-pyrimidin-4-ylamino)-4-methoxyl-2-(4-morpholin-4-yl-piperidin-1-yl)-phenyl)-acrylamide]	< 10	< 10	< 10	< 10	< 10	< 10	< 10	10 to 100	> 1000	> 1000	> 1000
C=CC(=O)Nc1cc(Nc2cc(-c3cn(C)c4cc(F)ccc34)ncn2)c(OC)cc1N(C)CCN(C)C [Compound 186, N-(4-methoxyl-5-(6-(6-fluoro-1-methyl-1H-indol-3-yl)-pyrimidin-4-ylamino)-2-(2-(dimethylamino-ethyl)-methyl-amino)-phenyl)-acrylamide]	10 to 100	10 to 100	10 to 100	10 to 100	10 to 100	10 to 100	10 to 100	100 to 1000	> 1000	> 1000	> 1000
C=CC(=O)Nc1cc(Nc2nccc(-n3ccc4cc(F)c(F)cc43)n2)c(OC)cc1N(C)CCN(C)C [Compound 103, N-(5-(4-(5,6-difluoro-1H-indol-1-yl)-pyrimidin-2-ylamino)-2-(2-(dimethylamino-ethyl)-methyl-amino)-4-methoxyl-phenyl)-acrylamide]	10 to 100	10 to 100	10 to 100	10 to 100	10 to 100	100 to 1000	100 to 1000	100 to 1000	> 1000	> 1000	> 1000
C=CC(=O)Nc1cc(Nc2ncnc(Nc3cccc(Br)c3)n2)c(OC)cc1N1CCCN(C)CC1 [Compound 130, N-[5-[4-(3-bromo-phenylamino)-[1,3,5]triazin-2-ylamino]-4-methoxyl-2-(4-methyl-[1,4]diazepane-1-yl)-phenyl]-acrylamide]	10 to 100	< 10	10 to 100		< 10	< 10	10 to 100	100 to 1000			
C=CC(=O)Nc1cc(Nc2ncnc(Nc3cccc(Br)c3)n2)c(OC)cc1N1CCC(N2CCCCC2)CC1 [Compound 119, N-{2-[1,4′]-piperidin-1′-yl-5-[4-(3-bromo-phenylamino)-[1,3,5]triazin-2-amino]-4-methoxyl-phenyl}-acrylamide]	< 10	< 10	< 10		< 10	< 10	10 to 100	100 to 1000			

From patent US10342796B2, “Acrylanilide derivative, preparation method, and applications thereof in pharmacy” (Ancureall Pharmaceutical (Shanghai) Co., Ltd., priority 2015, dated 2019)
